Here are results for five molecules from patent publication US4117164A, “Aminomethyl-benzocycloheptenes and method of use” (Roussel Uclaf, priority 1976, dated 1978).

Where a name gives a salt, the structure may show the parent alone.

A short description of series [1]: Acute toxicity, intraperitoneal. Particulars: mouse, in vivo, ip; mice, i.p., determined 48 hours later; read-out: DL50 dose which kills 50% of mice. The protocol: The DL50 dose which kills 50% of mice after intraperitoneal administration of the tested compound was determined 48 hours later and the DL50 for the compounds is reported in Table III.
In a further series the test system is serotonine (5HT) uptake. As to the kind of experiment: Inhibition of serotonine (5HT) uptake in vitro in impure brain synaptosomes. In kind it is biochemical. Particulars: synaptosomes from entire brain of female rat 19 to 21 days old, 14C-5HT 10^-7 M, 37° C., 5 minutes; read-out: I.C. 50, 50% inhibiting concentration of 14C-5HT uptake. On the procedure: The inhibition of serotonine (5HT) uptake was measured in impure synaptosomes prepared from the entire brain of a female rat 19 to 21 days old using the technique of Kannengiesser et al [Biochemical Pharmacology, Vol. 22, (1973) p. 73].

For another series, the system named is effects of L-dopa. As to the kind of experiment: Potentiation of effects of L-dopa in mice pretreated with iproniazide. In kind it is in vivo. The settings on record: Mus musculus, ip, one hour before L-dopa 100 mg/kg i.p.; male mice, iproniazide 75 mg/kg i.p. 18 hours before; read-out: ED50 dose which potentiates by 50% the L-dopa effects. On the procedure:
The administration of L-dopa to mice pretreated 18 hours previously with iproniazide produced certain number of symptoms; muscular hypertonicity, hyperactivity, agitation crying, aggressiveness, salivation and exophthalmy. The intensity of these effects is potentiated by administration of an antidepressant one hour before the administration of L-dopa. Male mice received intraperitoneally 75 mg/kg of iproniazide 18 hours before the start of the test and the tested product was intraperitoneally administered in aqueous solution in increasing doses. One hour later, L-dopa was intraperitoneally administered at a dose of 100 mg/kg and the different symptoms were observed 15 and 30 minutes later. They were evaluated on a scale of 0 to 3 for each animal and the totals for each dose were determined.

Series [2] has as its system effects of monoamine oxidase inhibitor (nialamide). As to the kind of experiment: Potentiation of effects of monoamine oxidase inhibitor (nialamide) in mice, actimetric measurements. Type of series: in vivo. Set-up: key: Potentiation of the effects of nial amide for the tested product was expressed in increasing number of + sign for a determined dose in mg/kg. The settings on record: nialamide 100 mg/kg i.p. 30 minutes before, actimetric values every 30 minutes for 6 hours. The source says:
The administration of a monoamine oxidase inhibitor to mice induces a hyperactive movement of the animals which is able to be potentiated by an antidepressant. […] Potentiation of the effects of nial amide for the tested product was expressed in increasing number of + sign for a determined dose in mg/kg.

For the molecule `CNCC1C=Cc2cc(N)ccc2CC1` (stereo not drawn) [Example 4, di-(N-methyl-2-amino-6,7-dihydro [5H]benzocycloheptene-7-methanamine) fumarate], the LD50 at 48 h in series [1] worked out at 100 mg/kg. The IC50 in the series with serotonine (5HT) uptake was found to be 6800 nM.

A word on the ED50: it is the dose that gives a 50% effect, or the effect in half of the subjects. On to `CNCC1C=Cc2cc(OC)ccc2CC1.Cl` (stereo not drawn) [Example 5, N-methyl-2-methoxy-6,7-dihydro [5H] benzocycloheptene-7-methanamine hydrochloride], for which the LD50 at 48 h in series [1] was 100 mg/kg. Moreover, in the series with serotonine (5HT) uptake, the IC50 worked out at 1400 nM. Further, the ED50 in the series on effects of L-dopa amounted to 50 mg/kg.

Regarding `CNCC1C=Cc2cc([N+](=O)[O-])ccc2CC1` (stereo not drawn) [Example 3, N-methyl-2-nitro-6,7-dihydro [5H] benzocycloheptene-7-methanamine hydrochloride], the LD50 at 48 h in series [1] is 100 mg/kg. Moreover, in series [2] (20 mg/kg i.p.), the “Potentiation of Nialamide” value is listed as “+”. Moreover, the IC50 in the series with serotonine (5HT) uptake came out at 590 nM. Further, the 50% effective dose (ED50) in the series with effects of L-dopa came out at 20 mg/kg.

For the molecule `CN(C)CC1C=Cc2cc([N+](=O)[O-])ccc2CC1` (stereo not drawn) [1 - 2], the LD50 at 48 h in series [1] worked out at 150 mg/kg. Moreover, the “Potentiation of Nialamide” value in series [2] (5 mg/kg i.p.) and in series [2] (20 mg/kg i.p.) was “+” in each case. Also, the IC50 in the series with serotonine (5HT) uptake is 630 nM.

With `CNCC1C=Cc2cc(O)ccc2CC1.Cl` (stereo not drawn) [Example 6, 7-methylaminomethyl-6,7-dihydro [5H] benzocycloheptene-2-ol-hydrochloride], the LD50 at 48 h in series [1] came to 75 mg/kg. The “Potentiation of Nialamide” value in series [2] (5 mg/kg i.p.) and in series [2] (20 mg/kg i.p.) was “+” in each case. Besides, the IC50 with serotonine (5HT) uptake is 980 nM. For the same molecule, the ED50 in the series with effects of L-dopa worked out at 20 mg/kg.
